Patent US20090181438A1, “OPTIMIZATION OF BIOFUEL PRODUCTION” (THE OHIO STATE UNIVERSITY RESEARCH FOUNDATION, priority 2007, published 2009)

Assays:
[1] = test system: cultures of Botryococcus braunii; conditions: cited from earlier work
Nannochloropsis sp. = assay type: cell-based
Protocol: Under simulated outdoor growing conditions (30 ppt, 26-37° C., 14:10 of 1000 umol, F/2) 12 liter aquaria of Nannochloropsis sp., equipped with mixers and pH controlled (˜7.2) CO2 gas input, had 25% of culture volume removed daily which was variably (0-25% of total fraction) extracted of lipids with decane (15 min) and sonic (2 sec) energy, decanted of solvent, then returned to culture, while the remaining untreated fraction (0-25%) was removed, dried and extracted with hexane.

[2] = test system: Nannochloropsis sp. cultures
Protocol: Variable fractions (0, 10%, 25%, and 50%) of identical 100 mL Nannochloropsis sp. cultures (n=2) were initially (arrows) mixed (15 min) with decane and exposed to an ultrasonic field (2 sec; 40 kHz water bath), decanted of solvent, then grown (F/2, 23° C., 24:0 of 100 μmol, 100 rpm, 33 ppt, 100 mL in 500 mL flasks). Further, variable timed treatments (arrows) at log-phase and stationary phases were also completed.

SMILES | solvent toxicity / biocompatibility [1] | growth rates and resultant culture biomass (Nannochloropsis sp.) | tolerance of daily exposure to treatment (Nannochloropsis sp.) | growth rate and resultant algal biomass compared to no treatment [2]
CCCCCCCCCCO [decanol] | toxic |  |  | 
CCCCCCCCCC [decane] |  | augment growth rates and the resultant culture biomass | tolerated | can positively affect growth rate and resultant algal biomass
CCCCCOCCCCC [dipentyl ether] | toxic |  |  | 
CCCCCCC [heptane] | nontoxic |  |  | 
CCCCCC [hexane] | nontoxic |  |  | 
